# Experimental data from patent US20140286903A1, “Substituted Purine Nucleosides, Phosphoramidate and Phosphordiamidate Derivatives for Treatment if Viral Infections” (INHIBITEX, INC., priority 2011, published 2014).
# Assays:
# [1] = Cytotoxicity assay (CellTiter-Glo); format: cell-based; conditions: human, 72 h incubation, concentration resulting in 50% luminescent signal
# Method: (§1) Further to the above Examples, representative compounds, prepared according to the examples were tested for potency in an HCV replicon assay (Genotype 1b) for activity against the virus (EC50) and toxicity to the cells (CC50).
# (§2) Huh7 Replicon Cell Lines and Cell Culture Conditions: A luciferase-reporter genotype 1b subgenomic replicon cell line, and a genotype 1a full-length replicon cell line were obtained from Apath, LLC, Brooklyn, N.Y.: All cell lines were passaged twice a week by splitting 4 or 6 fold. Cells were maintained in DMEM-high glucose medium (HyClone, Logan, Utah) supplemented with 9% FBS (HyClone), 2 mM glutamine (Invitrogen, Carlsbad, Calif.), 100 U/mL PenStrep (Invitrogen). Media also contained 0.25 mg/mL of the antibiotic G-418 to maintain stable expression of the replicon (Invitrogen). Incubation was performed at 37° C. in 5% CO2 atmosphere. Replicon cell lines were used until they accumulated 15-to-18 passages, after which cells were restarted from the frozen stock. Seeding cell counts were routinely determined using an automatic Cedex HiRes cell counter (Flownomics Analytical Instruments, Madison, Wis.) or manually using INCYTO C-Chip™ Disposable Hemacytometers (Fisher Scientific, Pittsburg, Pa.).
# Cytotoxicity Assay. Cells were seeded into 96-well plates at a density of 2×10^4 cells per well. 24 h after cell plating, 11 serial 2× compound dilutions, starting with 100 µM, were applied to the testing plates (3 repeats per compound dilution). Each testing plate was run with a “no-compound” control. Incubation with compounds was continued at 37° C. in a CO2 incubator for 72 h. To determine cell viability, the CellTiter-Glo® assay (Promega, Madison, Wis.) was performed according to the manufacturer's protocol. The compound concentration resulting in 50% luminescent signal was reported as the CC50 concentration.
# [2] = test system: HCV replicon (Genotype 1b); assay: Luciferase genotype 1b replicon potency assay; format: cell-based, hepatitis C virus; conditions: Hepatitis C virus, Huh-7, Huh7 luciferase-reporter genotype 1b subgenomic replicon cells; Renilla luciferase reporter activity; 50% decrease vs untreated cells
# Method: as §1, §2
# Luciferase Genotype 1b Replicon Potency Assay. Replicon cells were seeded into white 96-well plates (Nunc/VWR) at a density of 2×10^4 cells/well in medium without G-418. A Stacker Multidrop Liquid Dispenser (MTX Lab Systems, Vienna, Va.) was employed to ensure uniform and fast cell seeding into multiple plates. 18-24 h after cell plating, inhibitors were added and cells were incubated for additional 24, 48, or 72 h (as indicated). Compounds were tested in triplicates and quadruplicates at 3× or 4× serial dilutions over a range of 0.0001-to-10 μM concentrations. HCV replication was monitored by Renilla luciferase reporter activity assay using Renilla luciferase reporter (Promega, Madison, Wis.) and a Veritas Luminometer (Turner Biosystems, Sunnyvale, Calif.). 50% and 90% inhibitory concentration (IC50 and IC90) values were calculated as the concentration of compound that results correspondingly in 50% and 90% decreases in the reporter expression as compared to untreated cells. The values were determined by non-linear regression (four-parameter sigmoidal curve fitting) analysis.
compound,measurement,setting,value
"CCOc1nc(N)nc2c1ncn2[C@@H]1O[C@H](COP(=O)(N[C@@H](C)C(=O)OC2CCCCC2)Oc2cccc3ccccc23)[C@@H](F)[C@@]1(C)O (stereo partly drawn) [Example 22, (2S)-Cyclohexyl 2-((((2R,3R,4S,5R)-5-(2-amino-6-ethoxy-9H-purin-9-yl)-3-fluoro-4-hydroxy-4-methyltetrahydrofuran-2-yl)methoxy)(naphthalen-1-yloxy)phosphorylamino)propanoate]",CC50 at 72 h,[1],16 µM
same,IC50,[2],0.73 µM
"C[C@H](NP(=O)(OC[C@H]1O[C@@H](n2cnc3c(N4CCC4)nc(N)nc32)[C@](C)(O)[C@@H]1F)Oc1cccc2ccccc12)C(=O)OCC(C)(C)C (stereo partly drawn) [Example 23, (2S)-Neopentyl 2-((((2R,3R,4S,5R)-5-(2-amino-6-(azetidin-1-yl)-9H-purin-9-yl)-3-fluoro-4-hydroxy-4-methyltetrahydrofuran-2-yl)methoxy)(naphthalen-1-yloxy)phosphorylamino)propanoate]",CC50 at 72 h,[1],49 µM
same,IC50,[2],0.9 µM
"C[C@H](NP(=O)(OC[C@H]1O[C@@H](n2cnc3c(N4CCC4)nc(N)nc32)[C@](C)(O)[C@@H]1F)Oc1cccc2ccccc12)C(=O)OC1CCCC1 (stereo partly drawn) [Example 24, (2S)-Cyclopentyl 2-((((2R,3R,4S,5R)-5-(2-amino-6-(azetidin-1-yl)-9H-purin-9-yl)-3-fluoro-4-hydroxy-4-methyltetrahydrofuran-2-yl)methoxy)(naphthalen-1-yloxy)phosphorylamino)propanoate]",CC50 at 72 h,[1],50 µM
same,IC50,[2],0.9 µM
"C[C@H](NP(=O)(OC[C@H]1O[C@@H](n2cnc3c(N4CCC4)nc(N)nc32)[C@](C)(O)[C@@H]1F)Oc1cccc2ccccc12)C(=O)OC1CCCCC1 (stereo partly drawn) [Example 25, (2S)-Cyclohexyl 2-((((2R,3R,4S,5R)-5-(2-amino-6-(azetidin-1-yl)-9H-purin-9-yl)-3-fluoro-4-hydroxy-4-methyltetrahydrofuran-2-yl)methoxy)(naphthalen-1-yloxy)phosphorylamino)propanoate]",CC50 at 72 h,[1],33 µM
same,IC50,[2],0.95 µM
"COc1nc(N)nc2c1ncn2[C@@H]1O[C@H](COP(=O)(N[C@H](C(=O)OCc2ccccc2)C(C)C)Oc2cccc3ccccc23)[C@@H](F)[C@@]1(C)O (stereo partly drawn) [Example 26, (2S)-Benzyl 2-((((2R,3R,4S,5R)-5-(2-amino-6-methoxy-9H-purin-9-yl)-3-fluoro-4-hydroxy-4-methyltetrahydrofuran-2-yl)methoxy)(naphthalen-1-yloxy)phosphorylamino)-3-methylbutanoate]",CC50 at 72 h,[1],14 µM
same,IC50,[2],4 µM
"COc1nc(N)nc2c1ncn2[C@@H]1O[C@H](COP(=O)(N[C@@H](C)C(=O)OCC(C)(C)C)N[C@@H](C)C(=O)OCC(C)(C)C)[C@@H](F)[C@@]1(C)O [Example 27, (2S,2′S)-Neopentyl 2,2′-((((2R,3R,4S,5R)-5-(2-amino-6-methoxy-9H-purin-9-yl)-3-fluoro-4-hydroxy-4-methyltetrahydrofuran-2-yl)methoxy)phosphoryl)bis(azanediyl)dipropanoate]",CC50 at 72 h,[1]; Huh7 HCV replicon cells (genotype 1b),> 100 µM
same,IC50,[2],2.1 µM
"COc1nc(N)nc2c1ncn2[C@@H]1O[C@H](COP(=O)(N[C@@H](C)C(=O)OCc2ccccc2)Oc2cccc3ccccc23)[C@H](F)[C@@]1(C)O (stereo partly drawn) [Example 28, (2S)-Benzyl 2-((((2R,3S,4S,5R)-5-(2-amino-6-methoxy-9H-purin-9-yl)-3-fluoro-4-hydroxy-4-methyltetrahydrofuran-2-yl)methoxy)(naphthalen-1-yloxy)phosphorylamino)propanoate]",CC50 at 72 h,[1],92 µM
same,IC50,[2],> 40 µM
"COc1nc(N)nc2c1ncn2[C@@H]1O[C@H](COP(=O)(N[C@@H](C)C(=O)OCC(C)(C)C)Oc2cccc3ccccc23)[C@H](F)[C@@]1(C)O (stereo partly drawn) [Example 29, (2S)-Neopentyl 2-((((2R,3S,4S,5R)-5-(2-amino-6-methoxy-9H-purin-9-yl)-3-fluoro-4-hydroxy-4-methyltetrahydrofuran-2-yl)methoxy)(naphthalen-1-yloxy)phosphorylamino)propanoate]",CC50 at 72 h,[1],40 µM
same,IC50,[2],26 µM
"COc1nc(N)nc2c1ncn2[C@@H]1O[C@H](COP(=O)(N[C@H](C(=O)OCc2ccccc2)C(C)C)Oc2cccc3ccccc23)[C@H](F)[C@@]1(C)O (stereo partly drawn) [Example 30, (2S)-Benzyl 2-((((2R,3S,4S,5R)-5-(2-amino-6-methoxy-9H-purin-9-yl)-3-fluoro-4-hydroxy-4-methyltetrahydrofuran-2-yl)methoxy)(naphthalen-1-yloxy)phosphorylamino)-3-methylbutanoate]",CC50 at 72 h,[1],19 µM
same,IC50,[2],11 µM
"C[C@H](NP(=O)(OC[C@H]1O[C@@H](n2cnc3c(N)ncnc32)[C@](C)(O)[C@@H]1F)Oc1cccc2ccccc12)C(=O)OCC(C)(C)C (stereo partly drawn) [Example 31, (2S)-Neopentyl 2-((((2R,3R,4S,5R)-5-(6-amino-9H-purin-9-yl)-3-fluoro-4-hydroxy-4-methyltetrahydrofuran-2-yl)methoxy)(naphthalen-1-yloxy)phosphorylamino)propanoate]",CC50 at 72 h,[1],31 µM
same,IC50,[2],11 µM
"C[C@H](NP(=O)(OC[C@H]1O[C@@H](n2ccc(N)nc2=O)[C@](C)(O)[C@@H]1F)Oc1cccc2ccccc12)C(=O)OCC(C)(C)C (stereo partly drawn) [Example 32, (2S)-Neopentyl 2-((((2R,3R,4S,5R)-5-(4-amino-2-oxopyrimidin-1(2H)-yl)-3-fluoro-4-hydroxy-4-methyltetrahydrofuran-2-yl)methoxy)(naphthalen-1-yloxy)phosphorylamino)propanoate]",CC50 at 72 h,[1],> 100 µM
same,IC50,[2],> 40 µM
"C[C@H](NP(=O)(OC[C@H]1O[C@@H](n2ccc(=O)[nH]c2=O)[C@](C)(O)[C@@H]1F)Oc1cccc2ccccc12)C(=O)OCC(C)(C)C (stereo partly drawn) [Example 33, (2 S)-Neopentyl 2-((((2R,3R,4S,5R)-5-(2,4-dioxo-3,4-dihydropyrimidin-1(2H)-yl)-3-fluoro-4-hydroxy-4-methyltetrahydrofuran-2-yl)methoxy)(naphthalen-1-yloxy)phosphorylamino)propanoate]",CC50 at 72 h,[1],75 µM
same,IC50,[2],> 40 µM
